We go through six molecules from patent US20250206761A1, “HALOINDOLE MACROCYCLIC COMPOUNDS FOR THE TREATMENT OF CANCER” (Hoffmann-La Roche Inc., priority 2022, published 2025).

Experiment [1] relates to phosphorylation of ERK, KRAS G12C in NCJ-H358 cells. Nature of the experiment: pERK inhibition assay, KRAS G12C. It counts as cell-based, human. The conditions noted are these: Homo sapiens, 4 hours. The gist of the method: (§1)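 ERK phosphorylation is measured after 4 h of compound exposure in attached cells, using a colorimetric immunoassay on fixed, permeabilized monolayers. IC50 is derived by 4-parameter sigmoidal fitting.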

Experiment [2] concerns phosphorylation of ERK, KRAS G12V in SW620. The experiment is described as follows: pERK inhibition assay, KRAS G12V. It counts as cell-based, human. The conditions noted are these: Homo sapiens, SW-620, SW620, 4 hours. A digest of the protocol: as §1
In a further experiment the test system is SW620 (ATCC-CCL-227). Nature of the experiment: Cell viability assay, G12V (SW620). It is filed as cell-based, human. The conditions noted are these: Homo sapiens, SW-620; KRAS cell viability, SW620, 72 hrs, Cell Counting Kit-8. A digest of the protocol: (§2)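 IC50 derived by 4-parameter sigmoidal fit of CCK-8 signal (OD450−OD650, 2 h development) after 72 h compound exposure in 0.5% DMSO. Seeding density was 5,000 cells/well for NCI-H358 and 2,000 cells/well for AGS and SW620, plated overnight before dosing.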

For experiment [3], the system named is phosphorylation of ERK, KRAS G12D in AGS cells. The experiment is described as follows: pERK inhibition assay, KRAS G12D. It counts as cell-based, human. Conditions: Homo sapiens, 4 hours. How it is done: This assay is to measure the ability of test compounds in inhibiting the phosphorylation of ERK, the downstream signaling of KRAS G12C in NCJ-H358 cells, KRAS G12D in AGS cells, and KRAS G12V in SW620. NCJ-H358 (ATCC-CRL5807) cells, AGS (ATCC-CRL-1739) cells, SW620 (ATCC-CCL-227) cells were all grown and maintained using RPMI-1640 medium (Thermo Fisher Scientific) with 10% fetal bovine serum and 1% penicillin/streptomycin. On the day prior to compound addition, cells were plated in tissue culture-treated 96 well plates (Corning-3699) at a density of 30,000 cell/well, 20,000 cell/well, 30,000 cell/well for NCJ-H358, AGS and SW620 respectively, and allowed for attachment overnight. Diluted compounds were then added in a final concentration of 0.5% DMSO. After 4 hours of incubation, the medium was removed, 100 μL of 4% formaldehyde was added, and the assay plates were incubated at room temperature for 20 minutes. The plates were then washed once with phosphate buffered saline (PBS), and permeabilized with 100 μL of chilled methanol for 10 minutes. Non-specific antibody binding to the plates was blocked using 50 μL 1×BSA blocking buffer (Thermo-37520, 10-fold dilution by Phosphate-Buffered Saline Tween (PBST) for at least 1 hour at room temperature.
The amount of phosphor-ERK was determined using an antibody specific for phosphorylated form of ERK. Primary antibody (pERK, CST-4370, Cell Signaling Technology) was diluted 1:300 in blocking buffer, with 50 μL aliquoted to each well, and incubated overnight at 4′° C. Cells was washed five times for 5 minutes with PBST. Secondary antibody ([…] anti-rabbit IgG, CST-7074, Cell Signaling Technology) was diluted 1:1000 in blocking buffer, and 50 μL was added to each well and incubated 1-2 hrs at room temperature. Cells was washed 5 times for 5 minutes with PBST, 100 μL TMB ELISA substrate (abcam-ab171523) were added and gently shake for 20 minutes. 50 μL stop solution (abcam-ab171529) were added, and then read the signal (OD450) by EnVision.
IC50 was determined by fitting a 4-parameter sigmoidal concentration response model.

The subject of experiment [4] is AGS (ATCC-CRL-1739) cells. Nature of the experiment: Cell viability assay, G12D (AGS). Conditions: Homo sapiens, KRAS cell viability, 72 hrs, Cell Counting Kit-8. It counts as cell-based, human. A digest of the protocol: as §2
Experiment [5] has as its system NCI-H358 (ATCC-CRL5807) cells. Nature of the experiment: Cell viability assay, G12C (NCI-H358). The conditions noted are these: Homo sapiens; KRAS cell viability, NCI-H358, 72 hrs, Cell Counting Kit-8. It is filed as cell-based, human. The gist of the method:
as §2

The target of experiment [6] is KRAS G12V binding to BRAF (Homo sapiens (Human), UniProt P01116+P62937, G12V). Nature of the experiment: KRAS-BRAF with CYPA (500 nM) interaction assay (TR-FRET), G12V. It is filed as biochemical. The gist of the method: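 A TR-FRET assay measured how compound, in the presence of CYPA, disrupts binding of GMPPNP-loaded 6His-KRAS G12V to BRAF. The buffer contained 25 mM HEPES PH=7.4, 0.002% Tween20, 0.1% BSA, 100 mM NaCl, 5 mM MgCl2 and 10 μM GMPPNP. Compounds ran as a 16-point 3-fold dilution series from 10 μM for 3 hours.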
(TR-FRET usually uses a lanthanide donor and a delayed reading to cut background.)

The target of experiment [7] is KRAS G12D binding to BRAF (Homo sapiens (Human), UniProt P01116+P62937, G12D). The experiment is described as follows: KRAS-BRAF with CYPA (500 nM) interaction assay (TR-FRET), G12D. It is filed as biochemical.
Another experiment has as its target KRAS G12C-BRAF complex (Homo sapiens (Human), UniProt P01116+P62937, G12C). The experiment is described as follows: KRAS-BRAF with CYPA (500 nM) interaction assay (TR-FRET), G12C. It is filed as biochemical.

Sequence of KRAS G12D binding to BRAF (P01116-2 other isoform, or with tags, fused parts or gaps G12D): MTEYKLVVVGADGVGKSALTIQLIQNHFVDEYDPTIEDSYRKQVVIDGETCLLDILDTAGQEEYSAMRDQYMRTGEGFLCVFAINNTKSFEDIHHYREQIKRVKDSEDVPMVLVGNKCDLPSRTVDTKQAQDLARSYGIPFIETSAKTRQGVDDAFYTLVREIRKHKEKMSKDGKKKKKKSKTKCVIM
Sequence of KRAS G12D binding to BRAF (P62937 whole entry): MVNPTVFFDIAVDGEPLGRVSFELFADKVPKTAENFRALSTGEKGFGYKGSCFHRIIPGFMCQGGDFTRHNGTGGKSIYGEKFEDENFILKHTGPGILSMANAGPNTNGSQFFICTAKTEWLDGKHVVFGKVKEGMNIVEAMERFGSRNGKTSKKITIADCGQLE
Sequence of KRAS G12C-BRAF complex (P01116-2 other isoform, or with tags, fused parts or gaps G12C): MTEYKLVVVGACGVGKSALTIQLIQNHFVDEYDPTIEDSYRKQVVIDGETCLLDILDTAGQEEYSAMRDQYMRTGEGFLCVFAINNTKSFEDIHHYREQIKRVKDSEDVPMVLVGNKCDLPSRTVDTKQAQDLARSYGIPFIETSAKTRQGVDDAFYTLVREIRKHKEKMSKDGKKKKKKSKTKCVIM
Sequence of KRAS G12C-BRAF complex (P62937 whole entry): as the sequence (P62937 whole entry) above
Sequence of KRAS G12V binding to BRAF (P01116-2 other isoform, or with tags, fused parts or gaps G12V): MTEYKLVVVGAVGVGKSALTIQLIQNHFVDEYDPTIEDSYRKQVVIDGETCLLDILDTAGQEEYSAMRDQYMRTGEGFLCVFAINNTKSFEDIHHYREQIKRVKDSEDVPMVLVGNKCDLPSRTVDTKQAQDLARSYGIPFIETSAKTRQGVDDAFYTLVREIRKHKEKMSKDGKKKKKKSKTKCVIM
Sequence of KRAS G12V binding to BRAF (P62937 whole entry): as the sequence (P62937 whole entry) above

By IC50 is commonly meant the concentration that gives 50% inhibition. Read a low IC50 as greater potency in that assay. Take `CO[C@@H](C)c1ncc(N2CCN(C)CC2)cc1-c1c2c3c(F)c(ccc3n1CC(F)(F)F)-c1csc(n1)C[C@H](NC(=O)[C@H](C(C)C)N(C)C(=O)[C@H]1CCN(C(=O)[C@H](F)Cl)C1)C(=O)N1CCC[C@H](N1)C(=O)OCC(C)(C)C2` (atropisomer, axis not shown; (M)) [Example 1, (3S)-1-[(2R)-2-chloro-2-fluoro-acetyl]-N-[(1S)-1-[[(7S,13S)-25-fluoro-(20M)-20-[2-[(1S)-1-methoxyethyl]-5-(4-methylpiperazin-1-yl)-3-pyridyl]-17,17-dimethyl-8,14-dioxo-21-(2,2,2-trifluoroethyl)-15-oxa-4-thia-9,21,27,28-tetrazapentacyclo[17.5.2.1^2,5.1^9,13.0^22,26]octacosa-1(25),2,5(28),19,22(26),23-hexaen-7-yl]carbamoyl]-2-methyl-propyl]-N-methyl-pyrrolidine-3-carboxamide]: the IC50 in experiment [1] came out at 7 nM; in experiment [2], 55 nM; with SW620 (ATCC-CCL-227) it was 92 nM; in [3] it was 137 nM; in experiment [4], 390 nM; in [5], 5 nM.
As for `CO[C@@H](C)c1ncc(N2CCN(C)CC2)cc1-c1c2c3cc(c(F)cc3n1CC(F)(F)F)-c1csc(n1)C[C@H](NC(=O)[C@H](C(C)C)N(C)C(=O)[C@H]1CCN(C(=O)[C@H](F)Cl)C1)C(=O)N1CCC[C@H](N1)C(=O)OCC(C)(C)C2` (atropisomer, axis not shown; (M)) [Example 2, (3S)-1-[(2R)-2-chloro-2-fluoro-acetyl]-N-[(1S)-1-[[(7S,13S)-24-fluoro-(20M)-20-[2-[(1S)-1-methoxyethyl]-5-(4-methylpiperazin-1-yl)-3-pyridyl]-17,17-dimethyl-8,14-dioxo-21-(2,2,2-trifluoroethyl)-15-oxa-4-thia-9,21,27,28-tetrazapentacyclo[17.5.2.1^2,5.1^9,13.0^22,26]octacosa-1(25),2,5(28),19,22(26),23-hexaen-7-yl]carbamoyl]-2-methyl-propyl]-N-methyl-pyrrolidine-3-carboxamide], the IC50 is 1860 nM in [6]; 3.98 µM in [7]; 2 nM in experiment [1]; 20 nM in [2]; 175 nM in the experiment on SW620 (ATCC-CCL-227); 38 nM in [3]. The IC50 in experiment [4] came out at 822 nM; at KRAS G12C-BRAF complex, 89 nM; in experiment [5] it was 2 nM.
As to `CO[C@@H](C)c1ncc(N2CCN(C)CC2)cc1-c1c2c3cc(c(C)cc3n1CC(F)(F)F)-c1csc(n1)C[C@H](NC(=O)[C@H](C(C)C)N(C)C(=O)[C@H]1CCN(C(=O)[C@H](F)Cl)C1)C(=O)N1CCC[C@H](N1)C(=O)OCC(C)(C)C2` (atropisomer, axis not shown; (M)) [Example 3, (3S)-1-[(2R)-2-chloro-2-fluoro-acetyl]-N-[(1S)-1-[[(7S,13S)-(20M)-20-[2-[(1S)-1-methoxyethyl]-5-(4-methylpiperazin-1-yl)-3-pyridyl]-17,17,24-trimethyl-8,14-dioxo-21-(2,2,2-trifluoroethyl)-15-oxa-4-thia-9,21,27,28-tetrazapentacyclo[17.5.2.1^2,5.1^9,13.0^22,26]octacosa-1(25),2,5(28),19,22(26),23-hexaen-7-yl]carbamoyl]-2-methyl-propyl]-N-methyl-pyrrolidine-3-carboxamide], the figures for the IC50 in experiment [1], in [2] and in experiment [3] were 32 nM, 138 nM and 114 nM, respectively.
`CO[C@@H](C)c1ncc(N2CCOCC2)cc1-c1c2c3cc(c(F)cc3n1CC(F)(F)F)-c1csc(n1)C[C@H](NC(=O)[C@H](C(C)C)N(C)C(=O)[C@H]1CCN(C(=O)[C@H](F)Cl)C1)C(=O)N1CCC[C@H](N1)C(=O)OCC(C)(C)C2` (atropisomer, axis not shown; (M)) [Example 24, (3S)-1-[(2R)-2-chloro-2-fluoro-acetyl]-N-[(1S)-1-[[(7S,13S)-24-fluoro-(20M)-20-[2-[(1S)-1-methoxyethyl]-5-morpholino-3-pyridyl]-17,17-dimethyl-8,14-dioxo-21-(2,2,2-trifluoroethyl)-15-oxa-4-thia-9,21,27,28-tetrazapentacyclo[17.5.2.1^2,5.1^9,13.0^22,26]octacosa-1(25),2,5(28),19,22(26),23-hexaen-7-yl]carbamoyl]-2-methyl-propyl]-N-methyl-pyrrolidine-3-carboxamide]: the IC50 in [6] was 1390 nM; in experiment [7] it was greater than 10 µM; in experiment [1], 5 nM; in [2], 18 nM; in the experiment on SW620 (ATCC-CCL-227), 34 nM; in experiment [3], 12 nM. Moreover, the IC50 is 283 nM in experiment [4] and 53 nM against KRAS G12C-BRAF complex.
`CO[C@@H](C)c1ncc(N2CCN(C)CC2)cc1-c1c2c3c(F)c(ccc3n1CC(F)(F)F)-c1cc(O)cc(c1)C[C@H](NC(=O)[C@H](C(C)C)N(C)C(=O)[C@H]1CCN(C(=O)[C@H](F)Cl)C1)C(=O)N1CCC[C@H](N1)C(=O)OCC(C)(C)C2` (atropisomer, axis not shown; (M)) [Example 27, (3S)-1-[(2R)-2-chloro-2-fluoro-acetyl]-N-[(1S)-1-[[(8S,14S)-26-fluoro-4-hydroxy-(21M)-21-[2-[(1S)-1-methoxyethyl]-5-(4-methylpiperazin-1-yl)-3-pyridyl]-18,18-dimethyl-9,15-dioxo-22-(2,2,2-trifluoroethyl)-16-oxa-10,22,28-triazapentacyclo[18.5.2.1^2,6.1^10,14.0^23,27]nonacosa-1(26),2,4,6(29),20,23(27),24-heptaen-8-yl]carbamoyl]-2-methyl-propyl]-N-methyl-pyrrolidine-3-carboxamide]: the IC50 in experiment [6] is 3 nM; in [7] it was 0.007 µM; in experiment [1], 3 nM; in [2], 10 nM; with SW620 (ATCC-CCL-227), 31 nM; in experiment [3], 11 nM. The IC50 was 37 nM in [4] and 2 nM at KRAS G12C-BRAF complex.
Take `CCn1c(-c2cccnc2COC)c2c3cc(ccc31)-c1cc(O)cc(c1)C[C@H](NC(=O)[C@H](C(C)C)N(C)C(=O)C1CN(C(=O)[C@H](F)Cl)C1)C(=O)N1CCC[C@H](N1)C(=O)OCC(C)(C)C2` [RM461-A, reference compound]: the IC50 in [6] is 6080 nM; in experiment [7] it was greater than 10 µM; in experiment [1] it was 49 nM; in experiment [3], greater than 10000 nM; in [4] it was 7920 nM; against KRAS G12C-BRAF complex it was 27 nM. In experiment [5], the half-inhibitory concentration (IC50) worked out at 45 nM.
